The source of these data is US20210403435A1, “HERBICIDAL COMPOUNDS” (SYNGENTA CROP PROTECTION AG, priority 2018, published 2021).

Test in all cases: Post-emergence efficacy, glasshouse, evaluated after 13 days
What all share (format): in vivo

Experiment [1] has as its system Euphorbia heterophylla (EPHHL). The following applies: post-emergence application, 500 g/Ha, evaluated after 13 days; for pest or weed control at 500 g/ha: Euphorbia heterophylla, 312 h, read-out: Control of weed species EPHHL (100=total damage to plant; 0=no damage to plant). The method, boiled down:
(§1)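 Injury assessed 13 days after a post-emergence spray, 0 = no damage and 100 = total damage. Spray liquid: compound in acetone/IF50 (Emulsogen EL360, N-methylpyrrolidone, Dowanol DPM), diluted with 0.25% or 1% sodium lauryl ether sulphate plus 1% ammonium sulphate.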

Experiment [2] deals with Ipomoea hederacea (IPOHE). The following applies: post-emergence application, 500 g/Ha, evaluated after 13 days; for pest or weed control at 500 g/ha: Ipomoea hederacea, 312 h, read-out: Control of weed species IPOHE (100=total damage to plant; 0=no damage to plant). The method, boiled down:
as §1

The subject of a further experiment is Eleusine indica (ELEIN). As to conditions: post-emergence application, 500 g/Ha, evaluated after 13 days; for pest or weed control at 500 g/ha: Eleusine indica, 312 h, read-out: Control of weed species ELEIN (100=total damage to plant; 0=no damage to plant). The method, boiled down: as §1
Experiment [3] concerns Amaranthus palmeri (AMAPA). As to conditions: post-emergence application, 500 g/Ha, evaluated after 13 days; for pest or weed control at 500 g/ha: Amaranthus palmeri, 312 h, read-out: Control of weed species AMAPA (100=total damage to plant; 0=no damage to plant). The method, boiled down: as §1
Experiment [4] has as its system Digitaria sanguinalis (DIGSA). As to conditions: post-emergence application, 500 g/Ha, evaluated after 13 days; for pest or weed control at 500 g/ha: Digitaria sanguinalis, 312 h, read-out: Control of weed species DIGSA (100=total damage to plant; 0=no damage to plant). In short, it runs like this: as §1
In experiment [5] the test system is Echinochloa crus-galli (ECHCG). As to conditions: post-emergence application, 500 g/Ha, evaluated after 13 days; for pest or weed control at 500 g/ha: Echinochloa crus-galli, 312 h, read-out: Control of weed species ECHCG (100=total damage to plant; 0=no damage to plant). The method, boiled down:
as §1

In another experiment the test system is Lolium perenne (LOLPE). The following applies: post-emergence application, 500 g/Ha, evaluated after 13 days; for pest or weed control at 500 g/ha: Lolium perenne, 312 h, read-out: Control of weed species LOLPE (100=total damage to plant; 0=no damage to plant). In short, it runs like this: as §1
Experiment [6] concerns Chenopodium album (CHEAL). The following applies: post-emergence application, 500 g/Ha, evaluated after 13 days; for pest or weed control at 500 g/ha: Chenopodium album, 312 h, read-out: Control of weed species CHEAL (100=total damage to plant; 0=no damage to plant). In short, it runs like this: as §1
The subject of another experiment is Setaria faberi (SETFA). The following applies: post-emergence application, 500 g/Ha, evaluated after 13 days; for pest or weed control at 500 g/ha: Setaria faberi, 312 h, read-out: Control of weed species SETFA (100=total damage to plant; 0=no damage to plant). In short, it runs like this:
as §1

On to `CN(C(=O)c1cc[n+](CCS(=O)(=O)O)nc1)c1ccccc1` [Compound A8], for which the pest or weed control at 500 g/ha in experiment [1] was determined as 80%; in experiment [2] it was 30%; with Eleusine indica (ELEIN) it was 40%; in experiment [3], 100%; in experiment [4], 20%; in experiment [5], 10%. In addition, the pest or weed control at 500 g/ha stood at 0% in the experiment with Lolium perenne (LOLPE), 90% in experiment [6] and 20% in the experiment with Setaria faberi (SETFA).

Regarding `CCNC(=O)c1cc[n+](CCNS(=O)(=O)C(F)(F)F)nc1` [Compound A73], the pest or weed control at 500 g/ha in experiment [1] stood at 90%; in [2] it was 80%; in the experiment with Eleusine indica (ELEIN) it was 90%; in experiment [3], 100%; in experiment [4], 90%; in [5] it was 80%. Also, the figures for the pest or weed control at 500 g/ha (in the experiment with Lolium perenne (LOLPE); in experiment [6]; with Setaria faberi (SETFA)) were 60%, 90% and 60%, respectively.

Consider `C#CCNC(=O)c1cc[n+](CCNS(=O)(=O)[O-])nc1` [Compound A141], for which the pest or weed control at 500 g/ha was 60% in experiment [1]; 70% in [2]; 90% in the experiment with Eleusine indica (ELEIN); 100% in [3]; 70% in experiment [4]; 40% in experiment [5]. Also, the values for the pest or weed control at 500 g/ha (in the experiment on Lolium perenne (LOLPE); in experiment [6]; in the experiment on Setaria faberi (SETFA)) were 70%, 100% and 40%, respectively.

Regarding `CC(CC(=O)O)[n+]1ccc(C(=O)NC2(C#N)CC2)cn1` (stereo not drawn) [Compound A62], the pest or weed control at 500 g/ha in experiment [1] worked out at 100%; in experiment [2] it was 30%; with Eleusine indica (ELEIN) it was 90%; in experiment [3] it was 100%; in experiment [4], 70%; in [5], 80%. Also, the pest or weed control at 500 g/ha was determined as 70% with Lolium perenne (LOLPE), 90% in [6] and 70% with Setaria faberi (SETFA).

In the case of `O=C(O)CC[n+]1ccc(C(=O)Nc2ccc(F)cc2F)cn1` [Compound A106], the pest or weed control at 500 g/ha in [1] turned out to be 60%; in [2] it was 30%; in the experiment with Eleusine indica (ELEIN), 70%; in experiment [3] it was 100%; in [4] it was 40%; in experiment [5], 10%. Besides, the pest or weed control at 500 g/ha amounted to 50% with Lolium perenne (LOLPE), 50% in experiment [6] and 90% with Setaria faberi (SETFA).

For the molecule `CNC(=O)c1cc[n+](CC[C@H](N)C(=O)O)nc1.O=C(O)C(F)(F)F.O=C([O-])C(F)(F)F` [Compound A12], the “Control of weed species EPHHL (100=total damage to plant; 0=no damage to plant)” value in experiment [1] is 70. Also, the “Control of weed species IPOHE (100=total damage to plant; 0=no damage to plant)” value in experiment [2] is 40. Besides, the “Control of weed species ELEIN (100=total damage to plant; 0=no damage to plant)” value in the experiment with Eleusine indica (ELEIN) was 60. In addition, the “Control of weed species AMAPA (100=total damage to plant; 0=no damage to plant)” value in [3] was 90. Further, the “Control of weed species DIGSA (100=total damage to plant; 0=no damage to plant)” value in experiment [4] worked out at 90. In addition, in [5], the “Control of weed species ECHCG (100=total damage to plant; 0=no damage to plant)” value came to 80. Moreover, the “Control of weed species LOLPE (100=total damage to plant; 0=no damage to plant)” value in the experiment with Lolium perenne (LOLPE) was 40. Besides, the “Control of weed species CHEAL (100=total damage to plant; 0=no damage to plant)” value in [6] turned out to be 60. In addition, the “Control of weed species SETFA (100=total damage to plant; 0=no damage to plant)” value in the experiment with Setaria faberi (SETFA) turned out to be 60.

`CN(C)C(=O)c1cc[n+](CCCS(=O)(=O)O)nc1` [Compound A3]: the pest or weed control at 500 g/ha was found to be 90% in experiment [1]; 20% in [2]; 10% in the experiment with Eleusine indica (ELEIN); 90% in experiment [3]; 20% in experiment [4]; 20% in [5]. The pest or weed control at 500 g/ha was determined as 10% in the experiment with Lolium perenne (LOLPE), 70% in [6] and 20% with Setaria faberi (SETFA).

As to `O=C(Nc1ccccc1O)c1cc[n+](CCS(=O)(=O)[O-])nc1` [Compound A84, 2-[4-[(2-hydroxyphenyl)carbamoyl]pyridazin-1-ium-1-yl]ethanesulfonate], the pest or weed control at 500 g/ha in experiment [1] is 30%; in experiment [2], 10%; in the experiment on Eleusine indica (ELEIN), 10%; in [3], 0%; in experiment [4], 50%; in experiment [5] it was 20%. Moreover, the pest or weed control at 500 g/ha worked out at 0% in the experiment with Lolium perenne (LOLPE), 30% in experiment [6] and 20% in the experiment on Setaria faberi (SETFA).

With `CCC1(NC(=O)c2cc[n+](CCC(=O)O)nc2)CC1` [Compound A134], the pest or weed control at 500 g/ha in experiment [1] was 40%; in [2], 20%; in the experiment on Eleusine indica (ELEIN) it was 90%; in [3], 100%; in experiment [4], 100%; in [5], 100%. Also, the pest or weed control at 500 g/ha amounted to 90% in the experiment with Lolium perenne (LOLPE), 90% in experiment [6] and 60% in the experiment on Setaria faberi (SETFA).

As to `CN(C)C(=O)c1cc[n+](CCC(=O)O)nc1` [Compound A10], the pest or weed control at 500 g/ha in experiment [1] is 100%; in [2], 60%; in the experiment with Eleusine indica (ELEIN), 80%; in experiment [3] it was 100%; in experiment [4] it was 90%; in [5], 70%. The pest or weed control at 500 g/ha in the experiment with Lolium perenne (LOLPE) stood at 10%; in experiment [6] it was 100%; with Setaria faberi (SETFA), 90%.

With `CCCNC(=O)c1cc[n+](CCC(=O)O)nc1` [Compound A46], the pest or weed control at 500 g/ha in experiment [1] amounted to 100%; in experiment [2], 40%; with Eleusine indica (ELEIN), 10%; in [3], 50%; in [4], 90%; in experiment [5], 80%. In addition, the pest or weed control at 500 g/ha stood at 20% with Lolium perenne (LOLPE), 70% in experiment [6] and 100% in the experiment with Setaria faberi (SETFA).

For `O=C(O)CC[n+]1ccc(C(=O)N2CCCC2)cn1` [Compound A26], the pest or weed control at 500 g/ha in [1] turned out to be 90%; in [2], 40%; in the experiment on Eleusine indica (ELEIN), 80%; in experiment [3], 100%; in experiment [4] it was 100%; in experiment [5] it was 90%. For the same molecule, the pest or weed control at 500 g/ha is 90% in the experiment with Lolium perenne (LOLPE), 100% in experiment [6] and 100% in the experiment with Setaria faberi (SETFA).

`O=C(O)CC[n+]1ccc(C(=O)Nc2ccccc2)cn1` [Compound A33]: the pest or weed control at 500 g/ha in experiment [1] turned out to be 50%; in [2], 30%; in the experiment with Eleusine indica (ELEIN), 90%; in [3], 100%; in experiment [4], 60%; in experiment [5], 60%. Moreover, the pest or weed control at 500 g/ha in the experiment on Lolium perenne (LOLPE) is 70%; in experiment [6], 80%; in the experiment with Setaria faberi (SETFA), 60%.

For the molecule `CN(CCS(C)(=O)=O)C(=O)c1cc[n+](CCC(=O)O)nc1` [Compound A135], the pest or weed control at 500 g/ha in experiment [1] was determined as 80%; in experiment [2], 30%; in the experiment with Eleusine indica (ELEIN), 40%; in experiment [3], 80%; in [4], 90%; in experiment [5], 60%. Also, the pest or weed control at 500 g/ha in the experiment on Lolium perenne (LOLPE) turned out to be 70%; in [6], 60%; in the experiment with Setaria faberi (SETFA), 100%.

As to `C=CCNC(=O)c1cc[n+](CCNS(=O)(=O)[O-])nc1` [Compound A140], the pest or weed control at 500 g/ha was determined as 90% in [1]; 60% in [2]; 100% with Eleusine indica (ELEIN); 100% in experiment [3]; 90% in experiment [4]; 70% in experiment [5]. The results for the pest or weed control at 500 g/ha (in the experiment on Lolium perenne (LOLPE); in experiment [6]; with Setaria faberi (SETFA)) were 20%, 100% and 90%, respectively.
